The values below are quoted from earlier work in patent US20230416797A1, “MODULATING ANTIMICROBIAL PEPTIDE HALF-LIFE” (Syngulon SA., priority 2020, published 2023).

Series [1] deals with Candida species. The note with it: against Candida species; Shekh and Roy (2012).
Series [2] concerns fungal microbial organism. The note with it: from B. subtilis; Zuber et al. (1993), Shenin et al. (1995).
The test system of series [3] is pathogenic Gram-positive and Gram-negative bacteria. Particulars: against pathogenic Gram-positive and Gram-negative bacteria; Acuña et al. (2012).

For “WLPPAGLLGRCGRWFRPWLLWLQ SGAQY KWLGNLFGLGPK (WLPPAGLLGRCGRWFRPWLLWLQSGAQYKWLGNLFGLGPK; listed as Enterococcus faecalis) [SEQ ID NO: 1, an Enterococcus faecalis peptide]”, the neutralizing activity result in series [1] was “neutralizing activity”. For the molecule botrycidin AJ1316, the antifungal activities entry in series [2] is recorded as “antifungal activities”. Consider aurin B1, for which the antifungal activities result in series [2] is “antifungal activities”.

B1: Ent35-MccV: fusion bacteriocin: N-terminal glycine, Enterocin CRL35, a linker comprising three glycines, and a C-terminal Microcin V (protein)
chain: GKYYGNGVSCNKKGCSVDWGRAIGIIGNNSAANLATGGAAGWKSGGGASGRDIAMAIGTLSGQFVAGGIGAAAGGVAGGAIYDYASTHKPNPAMSPSGLGGTIKQKPEGIPSEAWNYAAGRLCNWSPNNLSDVCL
modifications: Hybrid bacteriocin Ent35-MccV
notes: fusion bacteriocin: N-terminal glycine, Enterocin CRL35, a linker comprising three glycines, and a C-terminal Microcin V
In the case of B1, the antimicrobial activity entry in series [3] is given as “antimicrobial activity”.
